In patent US8552013B2, “Heterocyclic compounds based on N6-substituted adenine, methods of their preparation, their use for preparation of drugs, cosmetic preparations and growth regulators, pharmaceutical preparations, cosmetic preparations and growth regulators containing these compounds” (USTAV Experimentalni Botaniky Akademie Ved Ceske Republiky, priority 2001, dated 2013) one finds IC50 and EC50 data, which are given here for 8 compounds.

In assay [1] the test system is K-562. In words: Calcein AM cytotoxicity, K-562. The format is cell-based. The note with it: read-out: IC 50, K-562. The essentials:
(§1)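 Cells in DMEM with 10% FCS, pre-incubated 24 h, then exposed to six 4-fold compound dilutions in duplicate for 72 h at 37 °C, 5% CO2. Viability read by Calcein AM fluorescence after 1 h further incubation.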

For assay [2], the system named is B16-F0 melanoma. In words: Calcein AM cytotoxicity, B16-F0. The format is cell-based. The note with it: Mus musculus, B16F0, 72 h, read-out: IC 50, B16-F0. The essentials: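 Cells pre-incubated 24 hours, then exposed for 72 hours at 37° C. to six 4-fold compound dilutions in duplicate, top well concentration usually 266.7 μM. Viability read by Calcein AM fluorescence after 1 hour; GI50 taken from dose-response curves of survival relative to control wells.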

Assay [3] concerns Human lymphocytes. In words: Immunosuppressive activity, 3H-thymidine incorporation in concanavalin A activated lymphocytes. The note with it: Lymphocyte, 72 hours, [3H]-TdR, read-out: Human lymphocytes ED50. It counts as cell-based. The text has this: One of the most important parameters of specific cellular immunity is proliferative response of lymphocytes to antigens or polyclonal mitogens. The majority of normal mammalian peripheral lymphocytes comprise resting cells. Antigens or nonspecific polyclonal mitogens have the capacity to activate lymphoid cells and this is accompanied by dramatic changes of intracellular metabolism (mitochondrial activity, protein synthesis, nucleic acids synthesis, formation of blastic cells and cellular proliferation). […] Variety of in vitro assays was developed to measure proliferative response of lymphocytes. The most commonly used is ^3H-thymidine incorporation method.
During cell proliferation, DNA has to be replicated before the cell is divided into two daughter cells. This close association between cell doublings and DNA synthesis is very attractive for assessing cell proliferation. If labelled DNA precursors are added to the cell culture, cells that are about to divide incorporate the labelled nucleotide into their DNA. Traditionally, those assays usually involve the use of radiolabelled nucleosides, particularly tritiated thymidine ([^3H]-TdR). The amount of [^3H]-TdR incorporated into the cellular DNA is quantified by liquid scintillation counting.
Human heparinized peripheral blood was obtained from healthy volunteers by cubital vein punction. The blood was diluted in PBS (1:3) and mononuclear cells were separated by centrifugation in Ficoll-Hypaque density gradient (Pharmacia, 1.077 g/ml) at 2200 rpm for 30 minutes. Following centrifugation, lymphocytes were washed in PBS and resuspended in cell culture medium (RMPI 1640, 2 mM glutamine, 100 U/ml penicillin, 100 μg/ml streptomycin, 10% fetal calf serum and sodium bicarbonate).
The cells were diluted at target density of 1,100,000 cells/ml were added by pipette (180 μl) into 96/well microtiter plates. Four-fold dilutions of the intended test concentration were added at time zero in 20 μl aliquots to the microtiter plate wells. Usually, test compound was evaluated at six 4-fold dilutions. In routine testing, the highest well concentration was 266.7 μM. All drug concentrations were examined in duplicates. All wells with exception of unstimulated controls were activated with 50 μl of concanavalin A (25 μg/ml). Incubations of cells with test compounds lasted for 72 hours at 37° C., in 5% CO2 atmosphere and 100% humidity. At the end of incubation period, the cells were assayed by using the [^3H]-TdR:
Cell cultures were incubated with 0.5 μCi (20 μl of stock solution 500 μCi/ml) per well for 6 hours at 37° C. and 5% CO2. The automated cell harvester was used to lyse cells in water and adsorb the DNA onto glass-fiber filters in the format of microtiter plate. The DNA incorporated [^3H]-TdR was retained on the filter while unincorporated material passes through. The filters were dried at room temperature overnight, sealed into a sample bag with 10-12 ml of scintillant. The amount of [^3H]-TdR present in each filter (in cpm) was determined by scintillation counting in a Betaplate liquid scintillation counter. The effective dose of immunosuppressant (ED) was calculated using the following equation: ED=(CCPMdrug exposed well/mean CCPMcontrol wells)×100%. The ED50 value, the drug concentration inhibiting proliferation of 50% of lymphocytes, was calculated from the obtained dose response curves.
A general note: Uptake of a labelled nucleoside into DNA is a usual measure of proliferation.

Assay [4] relates to T-lymphoblastic leukemia cell line CEM. In words: Calcein AM cytotoxicity, CEM. The format is cell-based, human. The essentials: as §1

SMILES strings stand for the structures. “And” between values parts separate entries of the source, which are not always exact repeats. Identical values can stand only once. Like-named read-outs stand apart in the source and are kept apart here.

With `Oc1cccc(CNc2ncnc3nc[nH]c23)c1` [meta-topolin, 6-(3-hydroxybenzylamino)purine], the IC50 in assay [1] (72 hours, listed as MT) was 140 µM; in assay [2], 90.6 µM. For the same compound, the EC50 in assay [3] came out at 5.6 µM.
In the case of `Fc1cccc(CNc2ncnc3nc[nH]c23)c1` [6-(3-fluorobenzylamino)purine], in assay [3], the EC50 is 18.2 µM.
Turning to `Ic1cccc(CNc2ncnc3nc[nH]c23)c1` [6-(3-iodobenzylamino)purine], the IC50 in assay [4] (Homo sapiens, 72 h) was 125 µM; in assay [1] (Homo sapiens, K562, 72 h), 94.7 µM.
For `Cc1ccccc1CNc1ncnc2nc[nH]c12` [6-(2-methylbenzylamino)purine], in that order: > 167 µM and 157 µM.
In the case of `Cc1ccc(CNc2ncnc3nc[nH]c23)cc1` [6-(4-methylbenzylamino)purine], the IC50 in assay [4] (Homo sapiens, 72 h) is 72.1 µM; in assay [1] (Homo sapiens, K562, 72 h) it was 72.8 µM.
`COc1cccc(CNc2ncnc3nc[nH]c23)c1` [6-(3-methoxybenzylamino)purine]: the IC50 in assay [2] is 41.5 µM.
Regarding `Fc1ccccc1CNc1ncnc2nc[nH]c12` [6-(2-fluorobenzylamino)purine], the IC50 in assay [4] (72 hours, listed as 2F BAP) was 136 µM and 98.9 µM; in assay [1] (72 hours), 136 µM and 70.7 µM. In assay [3], the EC50 came to 2.5 µM.
As for `Oc1ccccc1CNc1ncnc2nc[nH]c12` [ortho-topolin, 6-(2-hydroxybenzylamino)purine], the IC50 in assay [2] was 150 µM.
